# Source: PMC4564171 (PLoS ONE, 2015)
# Tests used:
# [1] = system: 60 bp pvirB FID DNA probe; experiment: Fluorescence intercalator displacement (FID) assay, 60 bp probe; assay type: binding, Shigella flexneri; settings: for 60 bp pvirB FID probe %fluorescence: ethidium bromide 45 μM, probe 1.5 μM
# Protocol: The FID protocol was based on previously published studies and was conducted in triplicate. For the assay, black, half-area, 96-well plates (Corning, Twerksbury, MA) were used. First, 70 μL of ethidium bromide in Tris Buffer (0.1 M Tris HCl, 0.1 M NaCl, pH 8.0) was added to all wells. The concentration of ethidium bromide was contingent upon the length of the DNA probe that was used. For the 60 bp pvirB FID DNA probe, the final ethidium bromide concentration used was 45 μM; whereas, for the 10 bp pvirB (51–60) FID DNA probe, the final ethidium bromide concentration used was 7.5 μM. Next, 10 μL of either pvirB FID DNA probes (10 or 60 bp) in TE/NaCl buffer (see above) or 10 μL of TE/NaCl buffer (background fluorescence control) were added to the appropriate wells of the plate. The final concentrations of the pvirB FID DNA probes were 1.5 μM. Lastly, 20 μL of test compound (either 19615 or Berenil) in 10% DMSO Tris Buffer or 20 μL of 10% DMSO Tris Buffer (100% fluorescence control) were added to the appropriate wells of the plate. The final concentrations of each test compound ranged from 12.5 μM to 100 μM. After the addition of all reagents, the plates were protected from light and allowed to equilibrate for 30 min on an orbital shaker at room temperature. Following equilibration, fluorescence was measured […] using a Biotek Synergy H1 plate reader (Winooski, VT). The average background fluorescence was subtracted from all data generated and %fluorescence was calculated for all wells containing compound via the following formula: %fluorescence=Ftest/F100%^*100 where: Ftest = the average fluorescence value obtained for each test compound and F100% = the average fluorescence value obtained for each 100% fluorescence control.
# [2] = target: T1, MalE-VirF binding to the pvirB DNA probe (Shigella flexneri, UniProt P0A2T1); experiment: Fluorescence polarization (FP) assay, inhibition of MalE-VirF binding to the pvirB DNA probe
# T1 construct: pMALvirF was constructed by cloning the virF gene into the vector, pMAL-c2x; made in house; host or cells: Shigella flexneri BS103 (pBAD202-MALvirF); initial preparations in E. coli KS1000 (pMALvirF)
# T1 sequence (P0A2T1 whole entry, looked up): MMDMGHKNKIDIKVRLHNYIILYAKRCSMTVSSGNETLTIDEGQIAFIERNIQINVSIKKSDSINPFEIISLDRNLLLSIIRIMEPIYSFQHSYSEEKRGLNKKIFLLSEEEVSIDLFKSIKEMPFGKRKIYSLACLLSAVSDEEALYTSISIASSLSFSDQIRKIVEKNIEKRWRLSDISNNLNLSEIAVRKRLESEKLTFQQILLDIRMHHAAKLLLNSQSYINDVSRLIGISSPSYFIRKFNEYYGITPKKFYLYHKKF
# Protocol: The FP assays were conducted in duplicate in black, half-area, 96-well plates (Corning, Twerksbury, MA). First, 30 μL of 5’-Fluoroscein-pvirB DNA probe working standard was added to appropriate wells of the microplate. The pvirB DNA working standard was in TE/NaCl buffer (see above) supplemented with BSA (0.07 mg/mL) and salmon sperm DNA (0.7 mg/mL). Next, 30 μL of varying concentrations of MalE-VirF in amylose resin elution buffer (see above) was added to appropriate wells of the microplate. The final concentration of pvirB DNA was either 50 nM (for test wells) or none (for blank wells) and the final concentrations of MalE-VirF ranged from 45 μM to 0.12 μM (for test wells) or none (for control wells). For each concentration of MalE-VirF tested, a blank well was also set up that included all reagents except pvirB DNA. The microplate was then incubated for 20 minutes at 37°C and anisotropy was determined using a SpectraMax M5 plate reader (Molecular Devices, Sunnyvale, CA). Data was acquired using an excitation wavelength equal to 490 nm and an emission wavelength equal to 520 nm. To determine anisotropy the following equation was used: Anisotropy=F∥-G^*F⊥/F∥+2^*G^*F⊥^*1000 where: Fǁ = fluorescence intensity parallel to excitation source after blanking, F┴ = fluorescence intensity perpendicular to excitation source after blanking, and G = G-factor (correction for polarization bias of the detection system). After anisotropy was determined, data were plotted using GraphPad Prism (La Jolla, Ca) and fit to the following equation: […] where Y = specific binding, KD = dissociation constant, BMAX = maximum binding, X = MalE-VirF concentration, and b = y-intercept.
# The FP protocol listed above was adapted to determine the IC50 of the small molecule hit compounds. Compounds (ranging from 200 μM to 3.1 μM) or DMSO for controls (1% final concentration) were added to the pvirB DNA probe working standard prior to addition to the microplates. For IC50 determination, the MalE-VirF and pvirB DNA probe concentrations were held constant at 20 μM and 50 nM, respectively. Positive controls were established to determine 100% VirF inhibition (no MalE-VirF present, 50 nM pvirB DNA probe) and negative controls were set up to determine no VirF inhibition (1% DMSO, 20 μM MalE-VirF, and 50 nM pvirB DNA probe). Once again blanks were set up to include all reagents, except pvirB DNA probe. All reactions were run in duplicate. Anisotropy was calculated as listed above and data were plotted using GraphPad Prism then fit to the following equation: Y=Bottom+(Top-Bottom)/(1+10^(X-logIC50)) where: Y = anisotropy, X = log of compound concentration (M), Top and Bottom = plateaus in anisotropy units, and LogIC50 = log of the concentration that inhibits 50% of VirF binding. In the presence of the compounds (no VirF), a small increase (~6%) in the DNA anisotropy was observed.
# The FP protocol used for IC50 determination was adapted to test a library of small molecule inhibitors of VirF. All steps were identical to the above protocol except compounds were tested at only 100 μM final concentration and positive control samples included 100 μM of compound. Once again blanks were set up to include all reagents, except pvirB DNA probe, and all reactions were run in duplicate. Anisotropy was calculated as listed above, and %inhibition was calculated as follows: %inhibition=rneg-rtest/rneg^*100 where: rneg = average anisotropy for negative controls and rtest = average anisotropy in presence of compound. Note: All rneg and rtest values were normalized to positive control values.
smiles,measurement,setting,value
CN(C)CCOc1nc(-c2ccccc2)nc2c1oc1ccccc12 [compound 19615],Displacement of ethidium bromide from the pvirB DNA probes (FID),"[1]; 12.5 to 100 μM, both 60 bp and 10 bp probes",not able to displace ethidium bromide
same,60 bp pvirB FID probe %fluorescence,[1]; compound 12.5 μM,93% ± 3%
same,60 bp pvirB FID probe %fluorescence,[1]; compound 25 μM,97% ± 2%
same,60 bp pvirB FID probe %fluorescence,[1]; compound 50 μM,95% ± 2%
same,60 bp pvirB FID probe %fluorescence,[1]; compound 100 μM,93% ± 3%
same,IC50,[2],46 ± 2.2 µM
same,Ki,[2],5.6 µM
same,inhibition at 100 µM,[2]; read-out: % Inhibition at 100 μM,63%
